Measured values reported in patent publication US20040228905A1, “Anti-inflammatory and antimicrobial uses for bioactive glass compositions” (priority 1996, published 2004).

Tested on: S. sanguis
Experiment: Anti-bacterial activity of bioactive glass supernates, survivors enumerated by viable counting
Type: cell-based
Details: non-bioactive glass derived alkaline solution, pH 9.8
Method: Nutrient broth (10 ml) was added to 5 grams of particulate bioactive glass with a pore size between 355 and 500 μm, 5 grams of glass beads (not bioactive glass) with a particle size between 455 and 600 μm, and no glass beads. The resulting solutions were incubated with rotation for 1 h at 37 C. 950 μl of each supernatant was removed and added to 50 μl of an overnight culture of S. sanguis, and incubated for 1 h at 37 C. Survivors were enumerated by viable counting.

[Na+].[OH-] [NaOH]
kills: 40%
